Some targets named below: Cytochrome P450 2D6 (Homo sapiens, UniProt P10635); Cytochrome P450 2C9 (Homo sapiens, UniProt P11712); Cytochrome P450 2C19 (Homo sapiens, UniProt P33261).
The target in the next experiment is D(3) dopamine receptor (Homo sapiens, UniProt P35462). Kind of experiment: DRUGMATRIX: Dopamine D3 radioligand binding (ligand: [3H] Spiperone). The class given is cell membranes, CHO, Membrane. The settings on record: cho.
Another experiment has as its target T1, Cytochrome P450 1A2 (Homo sapiens, UniProt P05177). Note: in other assays of this panel Not Active means under 50% inhibition at 10 µM.
T1 sequence (P05177 whole entry): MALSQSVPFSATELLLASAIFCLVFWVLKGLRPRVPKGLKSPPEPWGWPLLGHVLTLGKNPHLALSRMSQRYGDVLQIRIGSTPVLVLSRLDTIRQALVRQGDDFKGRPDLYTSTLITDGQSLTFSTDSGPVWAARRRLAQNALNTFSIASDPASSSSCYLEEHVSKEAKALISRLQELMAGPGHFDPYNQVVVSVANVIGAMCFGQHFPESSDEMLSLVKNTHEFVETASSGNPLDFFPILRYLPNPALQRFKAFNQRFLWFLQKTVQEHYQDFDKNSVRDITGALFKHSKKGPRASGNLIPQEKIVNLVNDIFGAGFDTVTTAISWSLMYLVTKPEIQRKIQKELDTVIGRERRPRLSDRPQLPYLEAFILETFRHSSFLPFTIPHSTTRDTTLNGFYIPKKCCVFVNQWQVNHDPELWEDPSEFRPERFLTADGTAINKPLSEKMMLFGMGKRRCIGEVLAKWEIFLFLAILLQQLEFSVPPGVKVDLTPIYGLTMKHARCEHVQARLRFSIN

The target of experiment [1] is T2, Androgen receptor (Rattus norvegicus, UniProt P15207).
T2 sequence (P15207 whole entry): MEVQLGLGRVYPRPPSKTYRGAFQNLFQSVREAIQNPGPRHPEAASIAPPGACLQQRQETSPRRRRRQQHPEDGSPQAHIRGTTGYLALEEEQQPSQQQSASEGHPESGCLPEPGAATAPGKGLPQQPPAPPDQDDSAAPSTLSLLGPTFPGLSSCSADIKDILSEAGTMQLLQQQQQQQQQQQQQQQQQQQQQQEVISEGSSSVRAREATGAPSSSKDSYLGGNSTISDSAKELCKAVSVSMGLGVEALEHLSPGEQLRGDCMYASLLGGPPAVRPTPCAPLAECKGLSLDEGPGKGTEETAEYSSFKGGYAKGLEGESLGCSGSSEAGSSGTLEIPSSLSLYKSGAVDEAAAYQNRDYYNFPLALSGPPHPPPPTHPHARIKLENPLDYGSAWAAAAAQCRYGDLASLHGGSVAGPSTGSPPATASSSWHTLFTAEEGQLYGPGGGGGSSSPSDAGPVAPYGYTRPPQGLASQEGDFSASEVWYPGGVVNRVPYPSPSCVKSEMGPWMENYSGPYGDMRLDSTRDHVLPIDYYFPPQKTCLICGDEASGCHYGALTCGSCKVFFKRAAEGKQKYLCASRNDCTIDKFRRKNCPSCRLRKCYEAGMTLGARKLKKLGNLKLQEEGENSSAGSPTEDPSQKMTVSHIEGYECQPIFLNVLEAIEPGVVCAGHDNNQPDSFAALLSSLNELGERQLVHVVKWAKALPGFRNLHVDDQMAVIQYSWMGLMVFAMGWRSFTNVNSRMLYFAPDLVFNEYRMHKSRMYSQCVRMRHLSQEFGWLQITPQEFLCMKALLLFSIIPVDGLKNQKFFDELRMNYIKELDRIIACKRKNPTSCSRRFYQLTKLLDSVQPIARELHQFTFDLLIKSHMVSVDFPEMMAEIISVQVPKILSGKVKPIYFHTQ

In experiment [2] the target is T2, Androgen receptor. The source holds these as a separate data set.

Sequence of D(3) dopamine receptor (P35462 whole entry): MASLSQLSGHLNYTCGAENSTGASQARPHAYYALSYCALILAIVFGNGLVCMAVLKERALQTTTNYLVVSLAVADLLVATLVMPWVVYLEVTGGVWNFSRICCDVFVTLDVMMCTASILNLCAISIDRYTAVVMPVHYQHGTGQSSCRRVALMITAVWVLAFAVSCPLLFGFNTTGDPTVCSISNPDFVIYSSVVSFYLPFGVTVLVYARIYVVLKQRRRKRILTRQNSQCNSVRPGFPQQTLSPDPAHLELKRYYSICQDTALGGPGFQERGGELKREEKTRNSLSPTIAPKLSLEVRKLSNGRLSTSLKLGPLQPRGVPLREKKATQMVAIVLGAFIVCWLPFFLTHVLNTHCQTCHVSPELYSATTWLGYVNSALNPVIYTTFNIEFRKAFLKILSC
Sequence of Cytochrome P450 2D6 (P10635 whole entry): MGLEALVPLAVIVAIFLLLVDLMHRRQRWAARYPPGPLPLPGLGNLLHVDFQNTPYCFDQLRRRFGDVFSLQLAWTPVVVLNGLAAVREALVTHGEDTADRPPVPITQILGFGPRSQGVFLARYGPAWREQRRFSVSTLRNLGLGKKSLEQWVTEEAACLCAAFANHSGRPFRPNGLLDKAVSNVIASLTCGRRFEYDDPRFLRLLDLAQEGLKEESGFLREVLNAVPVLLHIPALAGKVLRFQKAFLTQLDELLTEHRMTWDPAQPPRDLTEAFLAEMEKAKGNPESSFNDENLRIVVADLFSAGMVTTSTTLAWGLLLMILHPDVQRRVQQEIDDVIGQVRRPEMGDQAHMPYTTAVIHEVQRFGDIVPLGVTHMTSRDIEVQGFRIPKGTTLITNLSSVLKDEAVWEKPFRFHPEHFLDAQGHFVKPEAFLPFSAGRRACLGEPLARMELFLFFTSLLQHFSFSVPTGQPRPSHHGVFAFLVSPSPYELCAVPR
Sequence of Cytochrome P450 2C9 (P11712 whole entry): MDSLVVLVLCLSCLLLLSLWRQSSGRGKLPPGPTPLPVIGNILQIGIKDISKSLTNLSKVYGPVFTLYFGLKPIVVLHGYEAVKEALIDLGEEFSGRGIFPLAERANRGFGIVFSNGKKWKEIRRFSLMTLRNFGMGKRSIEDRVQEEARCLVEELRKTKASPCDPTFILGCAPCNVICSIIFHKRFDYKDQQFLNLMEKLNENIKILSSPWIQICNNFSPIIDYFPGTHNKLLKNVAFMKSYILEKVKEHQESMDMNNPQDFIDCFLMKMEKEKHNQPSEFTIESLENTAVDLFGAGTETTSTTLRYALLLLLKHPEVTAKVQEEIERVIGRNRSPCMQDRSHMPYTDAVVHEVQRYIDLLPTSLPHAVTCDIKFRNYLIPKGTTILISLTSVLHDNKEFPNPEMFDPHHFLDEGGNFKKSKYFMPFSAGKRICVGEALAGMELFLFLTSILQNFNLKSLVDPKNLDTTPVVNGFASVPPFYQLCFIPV
Sequence of Cytochrome P450 2C19 (P33261 whole entry): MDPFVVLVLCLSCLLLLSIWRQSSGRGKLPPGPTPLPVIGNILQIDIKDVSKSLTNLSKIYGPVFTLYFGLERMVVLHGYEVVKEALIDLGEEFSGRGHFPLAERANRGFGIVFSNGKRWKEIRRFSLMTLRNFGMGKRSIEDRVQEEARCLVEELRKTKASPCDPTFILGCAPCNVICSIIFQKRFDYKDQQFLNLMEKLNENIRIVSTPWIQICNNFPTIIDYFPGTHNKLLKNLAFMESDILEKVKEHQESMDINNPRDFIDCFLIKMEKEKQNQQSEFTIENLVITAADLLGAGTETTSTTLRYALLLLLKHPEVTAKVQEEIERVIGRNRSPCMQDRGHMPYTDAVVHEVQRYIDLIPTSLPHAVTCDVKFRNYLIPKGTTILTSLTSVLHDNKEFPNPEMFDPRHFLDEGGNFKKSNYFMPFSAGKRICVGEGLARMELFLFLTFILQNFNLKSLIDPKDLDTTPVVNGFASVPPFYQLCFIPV

With `CC(=O)Nc1ccc2c(c1)Cc1ccccc1-2` [2-ACETYLAMINOFLUORENE], the IC50 (as a rule, the concentration that gives 50% inhibition) on D(3) dopamine receptor is “Not Active”; against Cytochrome P450 1A2, 16 nM.
Turning to `OC[C@H]1OC2C3[C@@H](CO)OC(O[C@H]4[C@H](O)[C@@H](O)[C@@H](O[C@H]5[C@H](O)[C@@H](O)[C@@H](O[C@H]6[C@H](O)[C@@H](O)[C@@H](O[C@H]7[C@H](O)[C@@H](O)[C@@H](O[C@H]8[C@H](O)[C@@H](O)[C@@H](O[C@H]9[C@H](O)[C@@H](O)C(OC1[C@H](O)[C@H]2O)O[C@@H]9CO)O[C@@H]8CO)O[C@@H]7CO)O[C@@H]6CO)O[C@@H]5CO)O[C@@H]4CO)[C@H](O)[C@H]3O`, the IC50 entry at D(3) dopamine receptor and against Androgen receptor [1] was “Not Active” in each case.
For `CCN1CCN(c2cc3c(cc2F)c(=O)c(C(=O)O)cn3C2CC2)CC1` [ENROFLOXACIN], the IC50 entry on D(3) dopamine receptor and against Androgen receptor [1] was “Not Active” throughout.
As for POVIDONE, at D(3) dopamine receptor, the IC50 result is “Not Active” and the inhibition constant Ki – broadly, a measure of affinity in units of concentration, obtained from inhibition or displacement – was “Not Active”. Further, at Androgen receptor [1], the IC50 result was “Not Active” and the Ki result is “Not Active”.
With `C=C(Cl)Cl` [1,1-DICHLOROETHENE], the IC50 result at D(3) dopamine receptor and on Androgen receptor [1] was “Not Active” in each case.
As to `C=CCN1CC[C@]23c4c5ccc(O)c4O[C@H]2/C(=N/N=C2\CC[C@@]4(O)[C@H]6Cc7ccc(O)c8c7[C@@]4(CCN6CC=C)[C@H]2O8)CC[C@@]3(O)[C@H]1C5` [NALOXONAZINE], the IC50 entry on D(3) dopamine receptor and at Androgen receptor [1] was “Not Active” each time.
For the compound CHROMIC CHLORIDE, on D(3) dopamine receptor, the IC50 result is listed as “Not Active” and the Ki entry is “Not Active”. On Androgen receptor [1], the IC50 entry is “Not Active” and the inhibition constant (Ki) result is reported as “Not Active”.
Turning to `CCCCCCNC(=O)n1cc(F)c(=O)[nH]c1=O` [CARMOFUR], the results for the 50% inhibitory concentration (IC50) entry at D(3) dopamine receptor and against Cytochrome P450 2D6 were “Not Active” and 5000 nM, respectively.
Consider `O=C(O)CNCP(=O)(O)O` [GLYPHOSATE], for which the IC50 entry on D(3) dopamine receptor and against Androgen receptor [1] was “Not Active” each time.
For `Nc1ccc(C(=O)O)c(O)c1` [AMINOSALICYLIC ACID], the IC50 result at D(3) dopamine receptor and against Androgen receptor [1] was “Not Active” each time.
Take `COC(=O)C[C@](O)(CCC(C)(C)O)C(=O)O[C@@H]1C(OC)=C[C@]23CCCN2CCc2cc4c(cc2[C@H]13)OCO4` [HARRINGTONINE]: the IC50 result on D(3) dopamine receptor and against Androgen receptor [1] was “Not Active” each time.
Consider `COc1cc([C@@H]2c3cc4c(cc3[C@H](O)[C@H]3COC(=O)[C@H]23)OCO4)cc(OC)c1OC` [PODOFILOX], for which the IC50 result at D(3) dopamine receptor was “Not Active”; at Androgen receptor [1] it was “Not Active”; on Cytochrome P450 2C9, 4 µM; against Cytochrome P450 2C19, 5 µM.
Regarding CARBOXYMETHYLCELLULOSE, on D(3) dopamine receptor, the IC50 entry is on record as “Not Active” and the Ki entry is given as “Not Active”. Besides, on Androgen receptor [1], the IC50 entry is listed as “Not Active” and the Ki entry was “Not Active”.
With `CC(N)Cc1c[nH]c2ccc(OCc3cccs3)cc12` (stereo not drawn) [BW-723C86], the half-maximal inhibitory concentration (IC50) result is “Not Active” at D(3) dopamine receptor, 874 nM against Cytochrome P450 1A2, 2770 nM at Cytochrome P450 2D6 and “Not Active” on Androgen receptor [1].
`c1ccc2c(c1)Nc1ccccc1S2` [PHENOTHIAZINE]: the IC50 result is “Not Active” on D(3) dopamine receptor and 16 nM at Cytochrome P450 1A2.
In the case of `CC(C)(c1ccc(O)cc1)c1ccc(O)cc1` [BISPHENOL A], at D(3) dopamine receptor, the IC50 entry is on record as “Not Active”. On Androgen receptor [2], this compound yielded an IC50 of 33.8 µM and an inhibition constant Ki of 22.5 µM.
In the case of `CN(Cc1cc(Br)cc(Br)c1N)C1CCCCC1` [BROMHEXINE], the IC50 result on D(3) dopamine receptor was “Not Active”; on Cytochrome P450 2D6 it was 196 nM.
With `c1ccc(Cn2ccnc2)cc1`, the IC50 entry at D(3) dopamine receptor was “Not Active”; on Cytochrome P450 1A2 it was 200 nM; at Cytochrome P450 2D6 it was 2000 nM; at Androgen receptor [1] it was “Not Active”.
On to `CCO` [ALCOHOL], for which the 50% inhibitory concentration (IC50) entry on D(3) dopamine receptor and on Androgen receptor [1] was “Not Active” in each case.
As to `C[N+](C)(C)CCOP(=O)([O-])OC[C@H](O)CO`, the IC50 entry on D(3) dopamine receptor and against Androgen receptor [1] was “Not Active” each time.
As to `Cc1cc(C(C)(C)C)c(O)c(C)c1CC1=NCCN1` [OXYMETAZOLINE], the IC50 entry at D(3) dopamine receptor was “Not Active”; against Cytochrome P450 2D6, 200 nM; on Androgen receptor [1], “Not Active”.
In the case of `C[N+](C)(C)CCOC(N)=O.[Cl-]` [CARBACHOL], the 50% inhibitory concentration (IC50) result on D(3) dopamine receptor and on Androgen receptor [1] was “Not Active” each time.
On to `CN(CCOc1ccc(C[C@H](Nc2ccccc2C(=O)c2ccccc2)C(=O)O)cc1)c1ccccn1`, for which the IC50 entry on D(3) dopamine receptor is “Not Active”; against Androgen receptor [1], “Not Active”; at Cytochrome P450 2C9 it was 4 µM.
For the compound `O=c1[nH]c2ccccc2c2ccccc12`, the results for the IC50 entry on D(3) dopamine receptor, at Cytochrome P450 1A2 and against Androgen receptor [1] were “Not Active”, 16 nM and “Not Active”, respectively.
On to COPPER(II) OXIDE, for which, at D(3) dopamine receptor, the IC50 entry was “Not Active” and the Ki entry was “Not Active”. At Androgen receptor [1], the IC50 entry is “Not Active” and the Ki result was “Not Active”.

The record behind these values is ChEMBL document CHEMBL1909046, “DrugMatrix in vitro pharmacology data”.
